Converted amounts (≈) assume the structure as drawn.
Experiments:
Pichia kudriavzevii [1] = assay: Antifungal activity against Candida krusei ATCC 6258 by broth microdilution assay; type: functional
Candida albicans [2] = assay: Antifungal activity against Candida albicans ATCC 90028 by broth microdilution assay; type: functional
NIH3T3 = assay: Cytotoxicity against mouse NIH/3T3 cells assessed as reduction in cell viability after 24 hrs by MTT assay; type: cell-based; settings: NIH3T3, 24 h
Candida parapsilosis [3] = assay: Antifungal activity against Candida parapsilosis ATCC 22019 by broth microdilution assay; type: functional; settings: Lodderomyces parapsilosis
Nakaseomyces glabratus [4] = assay: Antifungal activity against Candida glabrata ATCC 90030 by broth microdilution assay; type: functional
Pichia kudriavzevii [5] = assay: Induction of apoptosis in Candida krusei ATCC 6258 assessed as necrotic cells at antifungal MIC90 after 24 hrs by Annexin V/propidium iodide staining based flow cytometry (reference value: 0.9%); type: functional
Candida albicans [6] = assay: Induction of apoptosis in Candida albicans ATCC 90028 assessed as late apoptotic cells at antifungal MIC90 after 24 hrs by Annexin V/propidium iodide staining based flow cytometry (reference value: 0%); type: functional
Candida albicans [7] = assay: Induction of apoptosis in Candida albicans ATCC 90028 assessed as live cells at antifungal MIC90 after 24 hrs by Annexin V/propidium iodide staining based flow cytometry (reference value: 99.8%); type: functional
Candida albicans [8] = assay: Induction of apoptosis in Candida albicans ATCC 90028 assessed as early apoptotic cells at antifungal MIC90 after 24 hrs by Annexin V/propidium iodide staining based flow cytometry (reference value: 0%); type: functional
Nakaseomyces glabratus [9] = assay: Induction of apoptosis in Candida glabrata ATCC 90030 assessed as live cells at antifungal MIC90 after 24 hrs by Annexin V/propidium iodide staining based flow cytometry (reference value: 99.5%); type: functional
Candida parapsilosis [10] = assay: Induction of apoptosis in Candida parapsilosis ATCC 22019 assessed as necrotic cells at antifungal MIC90 after 24 hrs by Annexin V/propidium iodide staining based flow cytometry (reference value: 1.4%); type: functional
Nakaseomyces glabratus [11] = assay: Induction of apoptosis in Candida glabrata ATCC 90030 assessed as early apoptotic cells at antifungal MIC90 after 24 hrs by Annexin V/propidium iodide staining based flow cytometry (reference value: 0%); type: functional
Pichia kudriavzevii [12] = assay: Induction of apoptosis in Candida krusei ATCC 6258 assessed as late apoptotic cells at antifungal MIC90 after 24 hrs by Annexin V/propidium iodide staining based flow cytometry (reference value: 1.4%); type: functional
Pichia kudriavzevii [13] = assay: Induction of apoptosis in Candida krusei ATCC 6258 assessed as early apoptotic cells at antifungal MIC90 after 24 hrs by Annexin V/propidium iodide staining based flow cytometry (reference value: 0.5%); type: functional
Nakaseomyces glabratus [14] = assay: Induction of apoptosis in Candida glabrata ATCC 90030 assessed as late apoptotic cells at antifungal MIC90 after 24 hrs by Annexin V/propidium iodide staining based flow cytometry (reference value: 0.2%); type: functional
Candida parapsilosis [15] = assay: Induction of apoptosis in Candida parapsilosis ATCC 22019 assessed as early apoptotic cells at antifungal MIC90 after 24 hrs by Annexin V/propidium iodide staining based flow cytometry (reference value: 0.1%); type: functional
Candida parapsilosis [16] = assay: Induction of apoptosis in Candida parapsilosis ATCC 22019 assessed as live cells at antifungal MIC90 after 24 hrs by Annexin V/propidium iodide staining based flow cytometry (reference value: 97.6%); type: functional
Pichia kudriavzevii [17] = assay: Induction of apoptosis in Candida krusei ATCC 6258 assessed as live cells at antifungal MIC90 after 24 hrs by Annexin V/propidium iodide staining based flow cytometry (reference value: 97.3%); type: functional
Nakaseomyces glabratus [18] = assay: Induction of apoptosis in Candida glabrata ATCC 90030 assessed as necrotic cells at antifungal MIC90 after 24 hrs by Annexin V/propidium iodide staining based flow cytometry (reference value: 0.3%); type: functional
Candida albicans [19] = assay: Induction of apoptosis in Candida albicans ATCC 90028 assessed as necrotic cells at antifungal MIC90 after 24 hrs by Annexin V/propidium iodide staining based flow cytometry (reference value: 0.2%); type: functional
Candida parapsilosis [20] = assay: Induction of apoptosis in Candida parapsilosis ATCC 22019 assessed as late apoptotic cells at antifungal MIC90 after 24 hrs by Annexin V/propidium iodide staining based flow cytometry (reference value: 0.9%); type: functional
Candida albicans [21] = assay: Induction of apoptosis in Candida albicans ATCC 90028 assessed as increase in late apoptotic cells at antifungal MIC90 by Annexin V/propidium iodide staining based flow cytometry; type: functional, organism-based; settings: TDE = time-dependent effect
Nakaseomyces glabratus [22] = assay: Induction of apoptosis in Candida glabrata ATCC 90030 assessed as increase in late apoptotic cells at antifungal MIC90 by Annexin V/propidium iodide staining based flow cytometry; type: functional, organism-based; settings: TDE = time-dependent effect
Pichia kudriavzevii [23] = assay: Induction of apoptosis in Candida krusei ATCC 6258 assessed as increase in late apoptotic cells at antifungal MIC90 by Annexin V/propidium iodide staining based flow cytometry; type: functional, organism-based; settings: TDE = time-dependent effect
Candida parapsilosis [24] = assay: Induction of apoptosis in Candida parapsilosis ATCC 22019 assessed as increase in late apoptotic cells at antifungal MIC90 by Annexin V/propidium iodide staining based flow cytometry; type: functional, organism-based; settings: TDE = time-dependent effect

MIC90 (Pichia kudriavzevii [1])	MIC90 (Candida albicans [2])	MIC90 (Candida parapsilosis [3])	MIC90 (Nakaseomyces glabratus [4])	Compound	IC50 (NIH3T3)	Activity (Pichia kudriavzevii [5])	Activity (Candida albicans [6])	Activity (Candida albicans [7])	Activity (Candida albicans [8])	Activity (Nakaseomyces glabratus [9])	Activity (Candida parapsilosis [10])	Activity (Nakaseomyces glabratus [11])	Activity (Pichia kudriavzevii [12])	Activity (Pichia kudriavzevii [13])	Activity (Nakaseomyces glabratus [14])	Activity (Candida parapsilosis [15])	Activity (Candida parapsilosis [16])	Activity (Pichia kudriavzevii [17])	Activity (Nakaseomyces glabratus [18])	Activity (Candida albicans [19])	other results
500 mg/L (≈ 1070 µM)	125 mg/L (≈ 267 µM)	62.5 mg/L (≈ 134 µM)	500 mg/L (≈ 1070 µM)	Cn1cnnc1SCCc1nnc(SCC(=O)Nc2nc3ccc(Cl)cc3s2)o1	422 mg/L (≈ 902 µM)	–	–	–	–	–	–	–	–	–	–	–	–	–	–	–	–
500 mg/L (≈ 1230 µM)	250 mg/L (≈ 615 µM)	500 mg/L (≈ 1230 µM)	250 mg/L (≈ 615 µM)	COc1ccc(NC(=O)CSc2nnc(CCSc3nncn3C)o2)cc1	> 500 mg/L	–	–	–	–	–	–	–	–	–	–	–	–	–	–	–	–
500 mg/L (≈ 1040 µM)	125 mg/L (≈ 261 µM)	62.5 mg/L (≈ 131 µM)	500 mg/L (≈ 1040 µM)	Cn1cnnc1SCCc1nnc(SCC(=O)Nc2nc3ccc([N+](=O)[O-])cc3s2)o1	> 500 mg/L	–	–	–	–	–	–	–	–	–	–	–	–	–	–	–	–
500 mg/L (≈ 1270 µM)	250 mg/L (≈ 634 µM)	500 mg/L (≈ 1270 µM)	250 mg/L (≈ 634 µM)	Cn1cnnc1SCCc1nnc(SCC(=O)Nc2ccc(F)cc2)o1	> 500 mg/L	–	–	–	–	–	–	–	–	–	–	–	–	–	–	–	–
1.56 mg/L (≈ 4.54 µM)	31.2 mg/L (≈ 90.6 µM)	1.56 mg/L (≈ 4.54 µM)	62.5 mg/L (≈ 181 µM)	Clc1ccccc1C(c1ccccc1)(c1ccccc1)n1ccnc1 [CLOTRIMAZOLE]	289 mg/L (≈ 839 µM)	54.3%	3.1%	56.7%	0.6%	46.3%	42.2%	0.3%	12.4%	0.6%	2.7%	0.8%	50.7%	32.6%	50.7%	39.7%	Activity (Candida parapsilosis [20]): 6.4%
500 mg/L (≈ 1080 µM)	125 mg/L (≈ 270 µM)	62.5 mg/L (≈ 135 µM)	500 mg/L (≈ 1080 µM)	COc1ccc2nc(NC(=O)CSc3nnc(CCSc4nncn4C)o3)sc2c1	485 mg/L (≈ 1050 µM)	–	–	–	–	–	–	–	–	–	–	–	–	–	–	–	–
500 mg/L (≈ 1330 µM)	250 mg/L (≈ 664 µM)	500 mg/L (≈ 1330 µM)	250 mg/L (≈ 664 µM)	Cn1cnnc1SCCc1nnc(SCC(=O)Nc2ccccc2)o1	> 500 mg/L	–	–	–	–	–	–	–	–	–	–	–	–	–	–	–	–
62.5 mg/L (≈ 138 µM)	62.5 mg/L (≈ 138 µM)	62.5 mg/L (≈ 138 µM)	62.5 mg/L (≈ 138 µM)	Cn1cnnc1SCCc1nnc(SCC(=O)Nc2nc3ccc(F)cc3s2)o1	> 500 mg/L	27.5%	39.5%	46.9%	0.1%	46.4%	17.7%	0.1%	42.3%	0%	36.6%	0.1%	40.5%	30.2%	17%	13.5%	Activity (Candida albicans [21]): Tde; Activity (Nakaseomyces glabratus [22]): Tde; Activity (Pichia kudriavzevii [23]): Tde; Activity (Candida parapsilosis [24]): Tde; Activity (Candida parapsilosis [20]): 41.7%
500 mg/L (≈ 1220 µM)	250 mg/L (≈ 608 µM)	500 mg/L (≈ 1220 µM)	250 mg/L (≈ 608 µM)	Cn1cnnc1SCCc1nnc(SCC(=O)Nc2ccc(Cl)cc2)o1	> 500 mg/L	–	–	–	–	–	–	–	–	–	–	–	–	–	–	–	–
250 mg/L (≈ 577 µM)	125 mg/L (≈ 288 µM)	250 mg/L (≈ 577 µM)	250 mg/L (≈ 577 µM)	Cn1cnnc1SCCc1nnc(SCC(=O)Nc2nc3ccccc3s2)o1	> 500 mg/L	–	–	–	–	–	–	–	–	–	–	–	–	–	–	–	–
125 mg/L (≈ 297 µM)	62.5 mg/L (≈ 148 µM)	125 mg/L (≈ 297 µM)	62.5 mg/L (≈ 148 µM)	Cn1cnnc1SCCc1nnc(SCC(=O)Nc2ccc([N+](=O)[O-])cc2)o1	> 500 mg/L	25.9%	13.5%	79.1%	0.4%	78.7%	4.2%	0.4%	3.4%	0.3%	1.8%	0.3%	93.4%	70.5%	19.1%	7%	Activity (Candida parapsilosis [20]): 4.2%

Compound	MIC90 (Pichia kudriavzevii [1])	MIC90 (Candida albicans [2])	MIC90 (Candida parapsilosis [3])	MIC90 (Nakaseomyces glabratus [4])	IC50 (NIH3T3)	Activity (Pichia kudriavzevii [5])	Activity (Candida albicans [6])	Activity (Candida albicans [7])	Activity (Candida albicans [8])	Activity (Nakaseomyces glabratus [9])	Activity (Candida parapsilosis [10])	Activity (Nakaseomyces glabratus [11])	Activity (Pichia kudriavzevii [12])	Activity (Pichia kudriavzevii [13])	Activity (Nakaseomyces glabratus [14])	Activity (Candida parapsilosis [15])	Activity (Candida parapsilosis [16])	Activity (Pichia kudriavzevii [17])	Activity (Nakaseomyces glabratus [18])	Activity (Candida albicans [19])	other results
CC(=O)N1CCN(c2ccc(OCC3COC(Cn4ccnc4)(c4ccc(Cl)cc4Cl)O3)cc2)CC1 (stereo not drawn) [KETOCONAZOLE]	1.56 mg/L (≈ 2.94 µM)	62.5 mg/L (≈ 118 µM)	1.56 mg/L (≈ 2.94 µM)	62.5 mg/L (≈ 118 µM)	396 mg/L (≈ 745 µM)	67.7%	11.2%	35.3%	1.1%	23.7%	57.3%	0.1%	8.3%	0.3%	4.1%	0.5%	27%	23.8%	72%	52.4%	Activity (Candida parapsilosis [20]): 15.2%

Reference: ChEMBL document CHEMBL4251611, “The synthesis, antifungal and apoptotic effects of triazole-oxadiazoles against Candida species” (Eur J Med Chem, 2018)
